Measurements published in publication PMC6050476, “Pre-clinical Pharmacokinetic and Metabolomic Analyses of Isorhapontigenin, a Dietary Resveratrol Derivative” (Frontiers in Pharmacology, 2018).

Columns and labels:
[1] = Plasma pharmacokinetics of isorhapontigenin in Sprague-Dawley rats (LC–MS/MS); assay type: in vivo; conditions: rat
Protocol: This in vivo study was conducted with strict adherence to the “Guidelines on the Care and Use of Animals for Scientific Purposes” (Singapore). The pharmacokinetic study design and animal handling procedures were reviewed and approved by the Institutional Animal Care and Use Committee of the National University of Singapore (NUS; R15-1273). All animal experiments were carried out in a specific pathogen-free animal facility (temperature: 22 ± 1°C; humidity: 60–70%) in Comparative Medicine, NUS. Sprague-Dawley rats (male, 9–10 weeks old, weight: 300–350 g) were purchased from InVivos (Singapore). The rats were housed under a 12 h light–dark cycle with free access to food and water. On the day before the pharmacokinetic study, surgery was performed under isoflurane anesthesia and a catheter (polyethylene tube, i.d. = 0.580 mm, o.d. = 0.965 mm, Becton Dickinson, Sparks, MD, United States) was implanted into the right jugular vein. Intravenous ISO administration and blood collection were carried out via this cannula. To prevent cross-contamination and blood clotting, ∼0.3 mL heparin-saline (10 I.U./mL) was flushed through the cannula after intravenous dosing or each blood collection. This reliable pharmacokinetic model has been routinely used in our laboratory to assess the pharmacokinetic profiles of resveratrol and its derivatives ([Yeo et al., 2013a],[b], [2017]; [Choo et al., 2014]; [Chen et al., 2015], [2016b],[c]; [Dai et al., 2018]).
0.3 M HP-β-CD was used to formulate ISO into a solution for intravenous injection while 0.3% CMC (w/v) was applied as a suspending vehicle for oral delivery ([Yeo et al., 2017]). To enhance the stability of ISO, L-ascorbic acid (final concentration: 0.1 mg/mL) was spiked into both intravenous and oral formulations ([Yeo et al., 2017]). The concentrations of ISO in intravenous and oral formulations were 5 and 13.3 mg/mL, respectively.
(§1) Twenty-two rats were divided into four groups. Group 1 (n = 5) received a single bolus intravenous injection of ISO at the dose of 90 μmol/kg (23.2 mg/kg). Serial blood samples were collected before dosing and at 5, 15, 30, 60, 90, 120, 180, 240, 300, 420, 540, and 720 min after intravenous injection. Group 2 (n = 5) received a single oral administration of ISO at the dose of 200 μmol/kg (51.6 mg/kg). Serial blood samples were collected before dosing and at 15, 30, 45, 60, 90, 120, 180, 240, 300, 420, 540, and 720 min after oral gavage. Group 3 (n = 5) received daily oral pre-treatment of oral dosing vehicle (2 mL/kg) while Group 4 (n = 7) received daily oral pre-treatment of ISO at the dose of 100 μmol/kg (25.8 mg/kg) for 1 week. On day 7, ∼8–10 h after the last pre-treatment dose, surgery was performed on rats in Groups 3 and 4 for jugular vein cannulation, and blood samples were also collected from Groups 3 and 4 for metabolomic study. On day 8, the pharmacokinetic study was carried out on these two groups of animals at the dose of 100 μmol/kg (25.8 mg/kg) using the same blood sampling schedule as Group 2.
All blood samples during the pharmacokinetic study were collected in heparinized tubes containing L-ascorbic acid (final concentration = 0.8 mg/mL) to ensure stability of ISO ([Yeo et al., 2017]). The samples were centrifuged at 5000 g for 5 min, and the plasma was harvested and stored at −40°C until LC–MS/MS analysis.
The LC–MS/MS analysis was carried out using an Agilent 1290 Infinity Liquid Chromatography system (Agilent Technologies, Santa Clara, CA, United States), which is coupled to an ABSciex QTRAP® 5500 mass spectrometer (AB Sciex, Framingham, MA, United States) and equipped with a TurboIon Spray probe (AB Sciex). The LC–MS/MS system was controlled by the Analyst 1.5.2 software (AB Sciex) and chromatographic data analysis was performed using the same software. […]

[2] = Body weight before and after 1-week ISO intervention; assay type: in vivo, Sprague-Dawley rats; conditions: 1-week daily oral ISO 100 μmol/kg, normal diet; p = 0.74 and 0.89
Protocol: as §1
One-week daily oral dosing of ISO decreased plasma levels of some di-aminoacid and N-acetyl amino acids such as glycyl-glycine, N-acetyl-glycine, N-acetyl-glutamine, and N-acetyl-orthinine. […] In this study, the healthy Sprague-Dawley rats were fed with normal diet. […]

[3] = Group 1, single intravenous 90 μmol/kg, HP–β–CD
[4] = Group 2, single oral 200 μmol/kg, suspension
[5] = Group 3, oral 100 μmol/kg after 1-week vehicle pre-treatment, suspension
[6] = Group 4, oral 100 μmol/kg after 1-week daily oral ISO 100 μmol/kg pre-treatment, suspension
[7] = male, Sprague-Dawley, plasma, po, 100 umol/kg, Group 3, oral 100 μmol/kg after 1-week vehicle pre-treatment, suspension
[8] = male, Sprague-Dawley, plasma, po, 100 umol/kg, Group 4, oral 100 μmol/kg after 1-week daily oral ISO 100 μmol/kg pre-treatment, suspension
[9] = male, Sprague-Dawley, plasma, po, 200 umol/kg, Group 2, single oral 200 μmol/kg, suspension
[10] = single intravenous 90 μmol/kg, resveratrol data ref Chen et al., 2016c
[11] = single oral 200 μmol/kg, resveratrol data ref Chen et al., 2016c

AUC0→last /Dose [1, 3]: 14.2 ± 5.2 kg⋅min/L
V [1, 3]: 0.893 ± 0.103 L/kg
AUC0→last /Dose [1, 4]: 4.28 ± 0.94 kg⋅min/L
Cmax /Dose [1, 4]: 27800 ± 3200 µg/mL
AUC0→last /Dose [1, 5]: 2.54 ± 0.69 kg⋅min/L
Cmax /Dose [1, 5]: 29200 ± 2800 µg/mL
AUC0→last /Dose [1, 6]: 2.97 ± 0.80 kg⋅min/L
Cmax /Dose [1, 6]: 23900 ± 6200 µg/mL
clearance ([1]; male, Sprague-Dawley, plasma, 90 umol/kg, Group 1, single intravenous 90 μmol/kg, HP–β–CD): 76.8 ± 23.7 mL/min/kg
Tmax ([1]; male, Sprague-Dawley, plasma, 100 umol/kg, Group 3, oral 100 μmol/kg after 1-week vehicle pre-treatment, suspension): 0.25 h
Tmax ([1]; male, Sprague-Dawley, plasma, 200 umol/kg, Group 2, single oral 200 μmol/kg, suspension): 0.25 to 0.75 h
MRT ([1]; male, Sprague-Dawley, plasma, iv, 90 umol/kg, Group 1, single intravenous 90 μmol/kg, HP–β–CD): 0.313 h
MRT [1, 7]: 2.27 h
bioavailability [1, 7]: 17.9 ± 4.9%
MRT [1, 8]: 3.03 h
bioavailability [1, 8]: 20.8 ± 5.6%
MRT [1, 9]: 3.07 h
bioavailability [1, 9]: 30.1 ± 6.6%
CL relative to resveratrol [1, 10]: comparable to resveratrol
V relative to resveratrol [1, 10]: comparable to resveratrol
average MRT longer than resveratrol [1, 10]: ~70%
time ISO remained measurable in the systemic circulation after administration ([1]; single oral 100 μmol/kg): at least 12 h
F relative to resveratrol [1, 11]: two to three folds greater
dose normalized AUC0→t (AUC0→t/Dose) relative to resveratrol [1, 11]: two to three folds greater
dose normalized Cmax (Cmax/Dose) relative to resveratrol [1, 11]: two to three folds greater
Structure (SMILES): COc1cc(/C=C/c2cc(O)cc(O)c2)ccc1O [isorhapontigenin, trans-3,5,4′-trihydroxy-3′-methoxystilbene]
body weights, vehicle vs ISO treatment group, before and after ISO intervention [2]: remained similar
